Experimental data published in PubChem BioAssay (NCI).
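The compound was tested at five concentrations on cells cultured in 96-well plates, with a 48-hour exposure period. TGI: concentration producing complete growth inhibition.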

Columns and labels:
Assay in all cases: growth of human tumour cells (NCI), 48 h
786-0 renal = tested on: 786-0 renal
A498 renal = tested on: A498 renal
A549 NSCLC = tested on: A549 NSCLC
ACHN renal = tested on: ACHN renal
BT-549 breast = tested on: BT-549 breast
CAKI-1 renal = tested on: CAKI-1 renal
COLO 205 colon = tested on: COLO 205 colon
DU-145 prostate = tested on: DU-145 prostate
EKVX NSCLC = tested on: EKVX NSCLC
HCT-116 colon = tested on: HCT-116 colon
HCT-15 colon = tested on: HCT-15 colon
HL-60(TB) leukemia = tested on: HL-60(TB) leukemia
HOP-62 NSCLC = tested on: HOP-62 NSCLC
HOP-92 NSCLC = tested on: HOP-92 NSCLC
HS 578T breast = tested on: HS 578T breast
HT29 colon = tested on: HT29 colon
IGROV1 ovarian = tested on: IGROV1 ovarian
K-562 leukemia = tested on: K-562 leukemia
KM12 colon = tested on: KM12 colon
LOX IMVI melanoma = tested on: LOX IMVI melanoma
M14 melanoma = tested on: M14 melanoma
MALME-3M melanoma = tested on: MALME-3M melanoma
MCF7 breast = tested on: MCF7 breast
MDA-MB-231 breast = tested on: MDA-MB-231 breast
MDA-MB-435 = tested on: MDA-MB-435
MDA-N = tested on: MDA-N
MOLT-4 leukemia = tested on: MOLT-4 leukemia
NCI-H226 lung = tested on: NCI-H226 lung
NCI-H23 lung = tested on: NCI-H23 lung
NCI-H460 lung = tested on: NCI-H460 lung
NCI-H522 lung = tested on: NCI-H522 lung
NCI/ADR-RES ovarian = tested on: NCI/ADR-RES ovarian
OVCAR-3 ovarian = tested on: OVCAR-3 ovarian
OVCAR-4 ovarian = tested on: OVCAR-4 ovarian
OVCAR-5 ovarian = tested on: OVCAR-5 ovarian
OVCAR-8 ovarian = tested on: OVCAR-8 ovarian
PC-3 prostate = tested on: PC-3 prostate
RPMI-8226 leukemia = tested on: RPMI-8226 leukemia
RXF 393 renal = tested on: RXF 393 renal
SF-268 CNS = tested on: SF-268 CNS
SF-295 CNS = tested on: SF-295 CNS
SF-539 CNS = tested on: SF-539 CNS
SK-MEL-2 melanoma = tested on: SK-MEL-2 melanoma
SK-MEL-28 melanoma = tested on: SK-MEL-28 melanoma
SK-MEL-5 melanoma = tested on: SK-MEL-5 melanoma
SK-OV-3 ovarian = tested on: SK-OV-3 ovarian
SN12C renal = tested on: SN12C renal
SNB-19 CNS = tested on: SNB-19 CNS
SNB-75 CNS = tested on: SNB-75 CNS
SR leukemia = tested on: SR leukemia
SW-620 colon = tested on: SW-620 colon
T-47D breast = tested on: T-47D breast
TK-10 renal = tested on: TK-10 renal
U251 CNS = tested on: U251 CNS
UACC-257 melanoma = tested on: UACC-257 melanoma
UACC-62 melanoma = tested on: UACC-62 melanoma
UO-31 renal = tested on: UO-31 renal
CCRF-CEM leukemia = tested on: CCRF-CEM leukemia
HCC-2998 colon = tested on: HCC-2998 colon

C=CCSc1nc2c(N)ncnc2n1C1OC(CO)C(O)C1O (centres undefined)
TGI (786-0 renal): > 100 µM | TGI (A498 renal): > 100 µM | TGI (A549 NSCLC): > 100 µM | TGI (ACHN renal): > 100 µM | TGI (BT-549 breast): > 100 µM | TGI (CAKI-1 renal): > 100 µM | TGI (COLO 205 colon): > 100 µM | TGI (DU-145 prostate): > 100 µM | TGI (EKVX NSCLC): > 100 µM | TGI (HCT-116 colon): > 100 µM | TGI (HCT-15 colon): > 100 µM | TGI (HL-60(TB) leukemia): > 100 µM | TGI (HOP-62 NSCLC): > 100 µM | TGI (HOP-92 NSCLC): > 100 µM | TGI (HS 578T breast): > 100 µM | TGI (HT29 colon): > 100 µM | TGI (IGROV1 ovarian): > 100 µM | TGI (K-562 leukemia): > 100 µM | TGI (KM12 colon): > 100 µM | TGI (LOX IMVI melanoma): > 100 µM | TGI (M14 melanoma): > 100 µM | TGI (MALME-3M melanoma): > 100 µM | TGI (MCF7 breast): > 100 µM | TGI (MDA-MB-231 breast): > 100 µM | TGI (MDA-MB-435): > 100 µM | TGI (MDA-N): > 100 µM | TGI (MOLT-4 leukemia): > 100 µM | TGI (NCI-H226 lung): > 100 µM | TGI (NCI-H23 lung): > 100 µM | TGI (NCI-H460 lung): > 100 µM | TGI (NCI-H522 lung): > 100 µM | TGI (NCI/ADR-RES ovarian): > 100 µM | TGI (OVCAR-3 ovarian): > 100 µM | TGI (OVCAR-4 ovarian): > 100 µM | TGI (OVCAR-5 ovarian): > 100 µM | TGI (OVCAR-8 ovarian): > 100 µM | TGI (PC-3 prostate): > 100 µM | TGI (RPMI-8226 leukemia): > 100 µM | TGI (RXF 393 renal): > 100 µM | TGI (SF-268 CNS): > 100 µM | TGI (SF-295 CNS): > 100 µM | TGI (SF-539 CNS): > 100 µM | TGI (SK-MEL-2 melanoma): > 100 µM | TGI (SK-MEL-28 melanoma): > 100 µM | TGI (SK-MEL-5 melanoma): > 100 µM | TGI (SK-OV-3 ovarian): > 100 µM | TGI (SN12C renal): > 100 µM | TGI (SNB-19 CNS): > 100 µM | TGI (SNB-75 CNS): > 100 µM | TGI (SR leukemia): > 100 µM | TGI (SW-620 colon): > 100 µM | TGI (T-47D breast): > 100 µM | TGI (TK-10 renal): > 100 µM | TGI (U251 CNS): > 100 µM | TGI (UACC-257 melanoma): > 100 µM | TGI (UACC-62 melanoma): > 100 µM | TGI (UO-31 renal): > 100 µM

COC(=O)C1(NC(=O)C(CC(=O)OCc2ccccc2)NC(=O)OCc2ccccc2)CCCCCCC1 (centres undefined)
TGI (786-0 renal): > 100 µM | TGI (A498 renal): 67.7 µM | TGI (A549 NSCLC): > 100 µM | TGI (ACHN renal): > 100 µM | TGI (BT-549 breast): > 100 µM | TGI (CAKI-1 renal): > 100 µM | TGI (COLO 205 colon): 82.7 µM | TGI (DU-145 prostate): > 100 µM | TGI (EKVX NSCLC): > 100 µM | TGI (HCT-116 colon): > 100 µM | TGI (HCT-15 colon): > 100 µM | TGI (HL-60(TB) leukemia): 51.9 µM | TGI (HOP-62 NSCLC): > 100 µM | TGI (HOP-92 NSCLC): > 100 µM | TGI (HS 578T breast): > 100 µM | TGI (HT29 colon): > 100 µM | TGI (IGROV1 ovarian): > 100 µM | TGI (K-562 leukemia): > 100 µM | TGI (KM12 colon): > 100 µM | TGI (LOX IMVI melanoma): > 100 µM | TGI (M14 melanoma): > 100 µM | TGI (MCF7 breast): > 100 µM | TGI (MDA-MB-231 breast): > 100 µM | TGI (MDA-MB-435): > 100 µM | TGI (MDA-N): > 100 µM | TGI (MOLT-4 leukemia): > 100 µM | TGI (NCI-H226 lung): 90.9 µM | TGI (NCI-H23 lung): > 100 µM | TGI (NCI-H460 lung): > 100 µM | TGI (NCI-H522 lung): > 100 µM | TGI (NCI/ADR-RES ovarian): > 100 µM | TGI (OVCAR-3 ovarian): > 100 µM | TGI (OVCAR-4 ovarian): > 100 µM | TGI (OVCAR-5 ovarian): > 100 µM | TGI (OVCAR-8 ovarian): > 100 µM | TGI (PC-3 prostate): > 100 µM | TGI (RPMI-8226 leukemia): 39.2 µM | TGI (RXF 393 renal): > 100 µM | TGI (SF-268 CNS): > 100 µM | TGI (SF-295 CNS): > 100 µM | TGI (SF-539 CNS): > 100 µM | TGI (SK-MEL-28 melanoma): > 100 µM | TGI (SK-MEL-5 melanoma): 29.4 µM | TGI (SK-OV-3 ovarian): > 100 µM | TGI (SN12C renal): > 100 µM | TGI (SNB-19 CNS): > 100 µM | TGI (SNB-75 CNS): > 100 µM | TGI (SR leukemia): > 100 µM | TGI (SW-620 colon): > 100 µM | TGI (T-47D breast): 94.2 µM | TGI (TK-10 renal): > 100 µM | TGI (U251 CNS): > 100 µM | TGI (UACC-62 melanoma): 63.2 µM | TGI (UO-31 renal): > 100 µM

C[n+]1cn(C2=C([O-])c3ccccc3C(=O)/C2=N\S(=O)(=O)c2ccccc2)c2ccccc21
TGI (786-0 renal): > 100 µM | TGI (A549 NSCLC): > 100 µM | TGI (ACHN renal): > 100 µM | TGI (BT-549 breast): 86.1 µM | TGI (CAKI-1 renal): > 100 µM | TGI (CCRF-CEM leukemia): > 100 µM | TGI (COLO 205 colon): 26.1 µM | TGI (DU-145 prostate): > 100 µM | TGI (EKVX NSCLC): > 100 µM | TGI (HCC-2998 colon): 46.7 µM | TGI (HCT-116 colon): > 100 µM | TGI (HCT-15 colon): > 100 µM | TGI (HL-60(TB) leukemia): 86.1 µM | TGI (HOP-62 NSCLC): > 100 µM | TGI (HOP-92 NSCLC): > 100 µM | TGI (HS 578T breast): > 100 µM | TGI (HT29 colon): > 100 µM | TGI (IGROV1 ovarian): 87.3 µM | TGI (K-562 leukemia): > 100 µM | TGI (KM12 colon): > 100 µM | TGI (LOX IMVI melanoma): 76.4 µM | TGI (M14 melanoma): 48.3 µM | TGI (MALME-3M melanoma): 5.88 µM | TGI (MCF7 breast): > 100 µM | TGI (MDA-MB-231 breast): > 100 µM | TGI (MDA-MB-435): 6.34 µM | TGI (MDA-N): 26.6 µM | TGI (MOLT-4 leukemia): > 100 µM | TGI (NCI-H226 lung): > 100 µM | TGI (NCI-H23 lung): 34.7 µM | TGI (NCI-H460 lung): 84.5 µM | TGI (NCI-H522 lung): 26.8 µM | TGI (NCI/ADR-RES ovarian): > 100 µM | TGI (OVCAR-3 ovarian): 44.9 µM | TGI (OVCAR-4 ovarian): 37.8 µM | TGI (OVCAR-5 ovarian): > 100 µM | TGI (OVCAR-8 ovarian): 77.4 µM | TGI (PC-3 prostate): > 100 µM | TGI (RPMI-8226 leukemia): > 100 µM | TGI (RXF 393 renal): 85.1 µM | TGI (SF-268 CNS): > 100 µM | TGI (SF-295 CNS): > 100 µM | TGI (SF-539 CNS): > 100 µM | TGI (SK-MEL-2 melanoma): 44.1 µM | TGI (SK-MEL-28 melanoma): > 100 µM | TGI (SK-MEL-5 melanoma): > 100 µM | TGI (SK-OV-3 ovarian): > 100 µM | TGI (SN12C renal): > 100 µM | TGI (SNB-19 CNS): 78.5 µM | TGI (SNB-75 CNS): > 100 µM | TGI (SR leukemia): > 100 µM | TGI (SW-620 colon): > 100 µM | TGI (T-47D breast): > 100 µM | TGI (TK-10 renal): 70.5 µM | TGI (U251 CNS): 50.7 µM | TGI (UACC-257 melanoma): 76.6 µM | TGI (UACC-62 melanoma): 45.6 µM | TGI (UO-31 renal): > 100 µM
